Entries after “also recorded” stand apart in the source; their conditions may differ.
How the values were obtained:
HBV [1] = experiment: Intracellular WT-HBV capsid protein, capsid-associated viral RNA and DNA in the dose-response experiment; type: cell-based, hepatitis B virus; conditions: 0.5 μM
Experimental: (§1) FIGS. 6A and 6B show a cartoon illustration for the analysis methods of extracellular and intracellular HBV viral and subviral particles. […] Viral and subviral particles are separated and characterized by Southern and Western blot analyses. Anti-HBc and anti-HBs antibodies are used consecutively for the same Western blot filters. Southern blot is performed in a separate agarose gel which allows the differentiation of genome-containing (G^+) from genome-free (G^−) viral and subviral particles. […] Then, the RNA/DNA signals are analyzed by Northern blot and Southern blot. 3.5 kb pgRNA: full-length 3.5 kb pre-genomic RNA. RT RNA: reverse transcripted RNA.
(§2) This mutant secretes no naked capsids. V/NC: Virions/naked capsids.
(§3) HBV secreted a total of six different viral and subviral particles in hepatocyte cell culture (FIG. 5). The only infectious particles were the genome-containing virions, which contained envelope protein, capsids, and encapsidated relaxed circle DNA genome. In FIGS. 6A and 6B, a cartoon illustrated the analysis methods of extracellular and intracellular HBV viral and subviral particles. […] Adding drug at 1-day post infection was not effective in blocking virion secretion (FIG. 7C). The potential cytotoxicity of KPT-335 was evaluated using two different methods—Alamar Blue and CCK-8 assays (FIG. 8).

HBV [2] = experiment: Southern and Northern blot analyses of HBV DNA synthesis and capsid-associated pgRNA in the infection assay; type: cell-based, hepatitis B virus; conditions: cotreatment, 0.5-1 μM
Experimental: (§4) However, HBc is strongly arrested in the nucleus by about 150-fold at 9 dpi, when co-treated with compounds KPT-330 or KPT-335. These two drugs are CRM1 inhibitors. Green: HBc. Red: NTCP. Blue: DAPI. […] Briefly, the infected culture of HepG2-NTCP-AS cells are treated with KPT-335 (0.5-1 μM) at 0, 3, and 5 dpi continuously until cell harvesting. Media are collected for ELISA of HBsAg and HBeAg. Cells are harvested for further analysis by Southern blot (SB) and Northern blots (NB). […] The level of total cytoplasmic viral RNA is reduced moderately by treatment with SINE compounds (1 μM). Comparisons of relaxed circular (RC) DNA banding intensities are as described in FIGS. 1A-1B legend, and normalized here to the no drug treatment control. SS: […].
(§5) The results in FIGS. 1A-1B by genetic mutant analysis was also supported by the results from the CRM1 drug treatment experiment (FIGS. 2A-2F). KPT-330 and KPT-335 are known CRM1 inhibitors. In an HBV in vitro infection system, when KPT-330 or KPT-335 were added to the cell culture before or soon after the infection with HBV, HBc was strongly arrested in the nucleus by immunofluorescence microscopy (FIG. 2A). Relative to the control with no drug treatment, KPT-330 and KPT-335 could increase nuclear HBc by approximately 150-fold (FIG. 2B). HBsAg and HBeAg were HBV serum markers.

HBV [3] = experiment: ELISA of HBsAg and HBeAg in medium, time course of drug treatment in HBV infection system (HepG2-NTCP-AS cells); type: cell-based, hepatitis B virus
Experimental: as §4, §5

HuH-7 cells = experiment: Cell proliferation by alamarBlue and CCK-8 assays; type: cell-based, human
Description: as §3

HBV [4] = experiment: HBV virion secretion assay, HuH-7 cells transfected with HBV replicon, native agarose gel with Western and Southern blot; type: cell-based, hepatitis B virus
Experimental: as §1, §2
An HBV replicon plasmid is transfected into HuH-7 human hepatoma cell line. SINE compound KPT-8602 is added to the transfected culture at 0 hr post-transfection (i.e., co-treatment). Extracellular media are collected on day 5 (120 hr) post-transfection. Assays for virion secretion are as described in FIG. 6A. Secretion of naked capsids is 100-fold (10 μM/0.1 μM) less sensitive to KPT-8602 treatment than virions.
as §3

[5] = test system: human cytomegalovirus (HCMV); conditions: by increasing the expression of type I interferon; cited from earlier work
[6] = test system: Kaposi's sarcoma-associated herpesvirus (KSHV); conditions: cited from earlier work
[7] = drug and virus added at the same time (co-treatment), 0.5-1 μM

## O=C(/C=C\n1cnc(-c2cc(C(F)(F)F)cc(C(F)(F)F)c2)n1)NNc1ccccn1 [KPT-335, Verdinexor]
HBV [1]
  capsid protein: no significant effect
  capsid-associated RNA (RNA encapsidation): no significant effect
HBV [2]
  HBV DNA synthesis: strongly inhibited
  HBV RNA encapsidation (cytoplasmic capsid-associated pgRNA): strongly inhibited
  formation of HBc capsids: strongly inhibited
HBV [3]; added at 3 or 5 dpi
  effect on HBV: no effect
HBV [3]; drug added at 3 or 5 dpi
  HBeAg in the medium by ELISA: no apparent effect
  HBsAg in the medium by ELISA: no apparent effect
HBV [3]; [7]
  HBeAg in the medium by ELISA: inhibit; also recorded: complete inhibition
  HBsAg in the medium by ELISA: inhibit; also recorded: complete inhibition
HuH-7 cells; below 0.25 μM, alamarBlue and CCK-8
  anti-proliferation effect: No significant anti-proliferation effect
HBV [4]; 0.5 μM, co-treatment
  HBV virion secretion: almost completely block
HBV [4]; 0.1, 0.25, 0.5 and 1 μM
  secretion of naked capsids, sensitivity in contrast to virions: much less sensitive
HBV [4]; drug added at 1-day post infection
  blocking virion secretion: not effective

## NC(=O)/C(=C/n1cnc(-c2cc(C(F)(F)F)cc(C(F)(F)F)c2)n1)c1cncnc1 [KPT-8602, Eltanexor]
[5]
  inhibition of human cytomegalovirus (HCMV): inhibit
HuH-7 cells
  cytotoxicity, side-by-side comparison: less cytotoxic
[6]
  lytic replication of KSHV: reduced
HBV [4]; 0.1 μM, co-treatment at 0 hr post-transfection, media collected day 5
  HBV virion secretion: blocks; also recorded: nearly completely block
HBV [4]; 0.1, 0.25, 0.5 and 1 μM
  inhibition of HBV virion secretion, side-by-side comparison: more inhibitory than KPT-335
  secretion of naked capsids, sensitivity in contrast to virions: much less sensitive
HBV [4]; HBV virion secretion, HuH-7
  potency, side-by-side comparison: more potent
HBV [4]; HuH-7, co-treatment, day 5
  secretion of naked capsids less sensitive than virions (10 μM/0.1 μM): 100 fold
